Tests used:
Assay type in all cases: functional
BT-549 [1] = test: Growth inhibition of human BT549 cells assessed as cell growth at 10^-8 M by sulforhodamine B assay; conditions: read-out: Activity
SF-268 [2] = test: Growth inhibition of human SF268 cells assessed as cell growth at 10^-7 M by sulforhodamine B assay; conditions: read-out: Activity
DU-145 = test: Growth inhibition of human DU145 cells assessed as cell growth at 10^-4 M by sulforhodamine B assay; conditions: read-out: Activity
TK-10 [3] = test: Growth inhibition of human TK10 cells by sulforhodamine B assay
SF-539 = test: Growth inhibition of human SF539 cells assessed as cell growth at 10^-8 M by sulforhodamine B assay; conditions: read-out: Activity
OVCAR-3 = test: Growth inhibition of human OVCAR3 cells by sulforhodamine B assay
U-251 = test: Growth inhibition of human U251 cells assessed as cell growth at 10^-4 M by sulforhodamine B assay; conditions: read-out: Activity
MDA-MB-468 = test: Growth inhibition of human MDA-MB-468 cells assessed as cell growth at 10^-8 M by sulforhodamine B assay; conditions: read-out: Activity
SK-MEL-5 = test: Growth inhibition of human SK-MEL-5 cells assessed as cell growth at 10^-8 M by sulforhodamine B assay; conditions: read-out: Activity
HT-29 = test: Growth inhibition of human HT-29 cells assessed as cell growth at 10^-7 M by sulforhodamine B assay; conditions: read-out: Activity
A498 = test: Growth inhibition of human A498 cells assessed as cell growth at 10^-6 M by sulforhodamine B assay; conditions: read-out: Activity
IGROV-1 [4] = test: Growth inhibition of human IGROV1 cells assessed as cell growth at 10^-4 M by sulforhodamine B assay; conditions: read-out: Activity
ACHN [5] = test: Growth inhibition of human ACHN cells by sulforhodamine B assay
786-0 = test: Growth inhibition of human 786-0 cells assessed as cell growth at 10^-7 M by sulforhodamine B assay; conditions: read-out: Activity
LOX IMVI [6] = test: Growth inhibition of human LOXIMVI cells assessed as cell growth at 10^-4 M by sulforhodamine B assay; conditions: read-out: Activity
UACC-62 [7] = test: Growth inhibition of human UACC62 cells assessed as cell growth at 10^-8 M by sulforhodamine B assay; conditions: read-out: Activity
UACC-62 [8] = test: Growth inhibition of human UACC62 cells assessed as cell growth at 10^-7 M by sulforhodamine B assay; conditions: read-out: Activity
IGROV-1 [9] = test: Growth inhibition of human IGROV1 cells by sulforhodamine B assay
SW-620 = test: Growth inhibition of human SW620 cells by sulforhodamine B assay
A549 [10] = test: Growth inhibition of human A549/ATCC cells assessed as cell growth at 10^-4 M by sulforhodamine B assay; conditions: read-out: Activity
SF-268 [11] = test: Growth inhibition of human SF268 cells assessed as cell growth at 10^-6 M by sulforhodamine B assay; conditions: read-out: Activity
T47D [12] = test: Growth inhibition of human T47D cells assessed as cell growth at 10^-6 M by sulforhodamine B assay; conditions: read-out: Activity
[13] = Growth inhibition of human Hs 578T cells by sulforhodamine B assay
TK-10 [14] = test: Growth inhibition of human TK10 cells assessed as cell growth at 10^-6 M by sulforhodamine B assay; conditions: read-out: Activity
UO-31 = test: Growth inhibition of human UO31 cells assessed as cell growth at 10^-4 M by sulforhodamine B assay; conditions: read-out: Activity
ACHN [15] = test: Growth inhibition of human ACHN cells assessed as cell growth at 10^-7 M by sulforhodamine B assay; conditions: read-out: Activity
COLO 205 = test: Growth inhibition of human COLO205 cells assessed as cell growth at 10^-8 M by sulforhodamine B assay; conditions: read-out: Activity
UACC-257 = test: Growth inhibition of human UACC257 cells assessed as cell growth at 10^-7 M by sulforhodamine B assay; conditions: read-out: Activity
RXF 393 = test: Growth inhibition of human RXF393 cells by sulforhodamine B assay
SR [16] = test: Growth inhibition of human SR cells assessed as cell growth at 10^-8 M by sulforhodamine B assay; conditions: read-out: Activity
SF-295 = test: Growth inhibition of human SF295 cells assessed as cell growth at 10^-4 M by sulforhodamine B assay; conditions: read-out: Activity
LOX IMVI [17] = test: Growth inhibition of human LOXIMVI cells assessed as cell growth at 10^-6 M by sulforhodamine B assay; conditions: read-out: Activity
BT-549 [18] = test: Growth inhibition of human BT549 cells by sulforhodamine B assay
SR [19] = test: Growth inhibition of human SR cells assessed as cell growth at 10^-4 M by sulforhodamine B assay; conditions: read-out: Activity
NCI-H460 = test: Growth inhibition of human NCI-H460 cells assessed as cell growth at 10^-6 M by sulforhodamine B assay; conditions: read-out: Activity
TK-10 [20] = test: Growth inhibition of human TK10 cells assessed as cell growth at 10^-7 M by sulforhodamine B assay; conditions: read-out: Activity
SK-MEL-2 = test: Growth inhibition of human SK-MEL-2 cells assessed as cell growth at 10^-7 M by sulforhodamine B assay; conditions: read-out: Activity
SN12C = test: Growth inhibition of human SN12C cells assessed as cell growth at 10^-6 M by sulforhodamine B assay; conditions: read-out: Activity
A549 [21] = test: Growth inhibition of human A549/ATCC cells by sulforhodamine B assay
T47D [22] = test: Growth inhibition of human T47D cells assessed as cell growth at 10^-7 M by sulforhodamine B assay; conditions: read-out: Activity
[23] = read-out: LC50 (the source's name)
[24] = read-out: pLC50 (the source's name) (converted)

C/C=C(/C)C(=O)O[C@@H]1CC(C)(C)C[C@H]2C3=CC[C@@H]4[C@@]5(C)CC[C@H](O)C(C)(C)[C@@H]5CC[C@@]4(C)[C@]3(C)CC[C@@]12C(=O)O [Reduced Lantadene A]
growth at 0.01 µM (BT-549 [1]): 99%
growth at 0.1 µM (SF-268 [2]): 106%
growth at 100 µM (DU-145): -46%
GI50 (TK-10 [3]; read-out: GI50): 2.25 µM
CC50 (TK-10 [3]; [23]): 9.55 µM
TGI (TK-10 [3]; read-out: TGI): 4.63 µM
GI50 (TK-10 [3]; read-out: pGI50 (converted)): 2.24 µM
CC50 (TK-10 [3]; [24]): 9.55 µM
TGI (TK-10 [3]; read-out: pTGI (converted)): 4.68 µM
growth at 0.01 µM (SF-539): 100%
GI50 (OVCAR-3; read-out: GI50): 1.95 µM
TGI (OVCAR-3; read-out: TGI): 3.61 µM
GI50 (OVCAR-3; read-out: pGI50 (converted)): 1.95 µM
TGI (OVCAR-3; read-out: pTGI (converted)): 3.63 µM
growth at 100 µM (U-251): -52%
growth at 0.01 µM (MDA-MB-468): 93%
growth at 0.01 µM (SK-MEL-5): 95%
growth at 0.1 µM (HT-29): 108%
growth at 1 µM (A498): 78%
growth at 100 µM (IGROV-1 [4]): -58%
GI50 (ACHN [5]; read-out: GI50): 1.82 µM
CC50 (ACHN [5]; [23]): 9.07 µM
TGI (ACHN [5]; read-out: TGI): 4.06 µM
GI50 (ACHN [5]; read-out: pGI50 (converted)): 1.82 µM
CC50 (ACHN [5]; [24]): 9.12 µM
TGI (ACHN [5]; read-out: pTGI (converted)): 4.07 µM
growth at 0.1 µM (786-0): 97%
growth at 100 µM (LOX IMVI [6]): -62%
growth at 0.01 µM (UACC-62 [7]): 96%
growth at 0.1 µM (UACC-62 [8]): 88%
GI50 (IGROV-1 [9]; read-out: GI50): 2.32 µM
CC50 (IGROV-1 [9]; [23]): 9.24 µM
TGI (IGROV-1 [9]; read-out: TGI): 4.63 µM
GI50 (IGROV-1 [9]; read-out: pGI50 (converted)): 2.29 µM
CC50 (IGROV-1 [9]; [24]): 9.33 µM
TGI (IGROV-1 [9]; read-out: pTGI (converted)): 4.68 µM
GI50 (SW-620; read-out: GI50): 2.31 µM
CC50 (SW-620; [23]): > 100 µM
TGI (SW-620; read-out: TGI): 6.62 µM
GI50 (SW-620; read-out: pGI50 (converted)): 2.29 µM
CC50 (SW-620; [24]): > 100 µM
TGI (SW-620; read-out: pTGI (converted)): 6.61 µM
growth at 100 µM (A549 [10]): -59%
growth at 1 µM (SF-268 [11]): 104%
growth at 1 µM (T47D [12]): 96%
GI50 ([13]; read-out: GI50): 2.13 µM
CC50 [13, 23]: > 100 µM
TGI ([13]; read-out: TGI): 5.21 µM
GI50 ([13]; read-out: pGI50 (converted)): 2.14 µM
CC50 [13, 24]: > 100 µM
TGI ([13]; read-out: pTGI (converted)): 5.25 µM
growth at 1 µM (TK-10 [14]): 106%
growth at 100 µM (UO-31): -66%
growth at 0.1 µM (ACHN [15]): 101%
growth at 0.01 µM (COLO 205): 107%
growth at 0.1 µM (UACC-257): 88%
GI50 (RXF 393; read-out: GI50): 1.77 µM
CC50 (RXF 393; [23]): 8.29 µM
TGI (RXF 393; read-out: TGI): 3.83 µM
GI50 (RXF 393; read-out: pGI50 (converted)): 1.78 µM
CC50 (RXF 393; [24]): 8.32 µM
TGI (RXF 393; read-out: pTGI (converted)): 3.8 µM
growth at 0.01 µM (SR [16]): 83%
growth at 100 µM (SF-295): -57%
growth at 1 µM (LOX IMVI [17]): 97%
GI50 (BT-549 [18]; read-out: GI50): 1.94 µM
CC50 (BT-549 [18]; [23]): 8.53 µM
TGI (BT-549 [18]; read-out: TGI): 4.06 µM
GI50 (BT-549 [18]; read-out: pGI50 (converted)): 1.95 µM
CC50 (BT-549 [18]; [24]): 8.51 µM
TGI (BT-549 [18]; read-out: pTGI (converted)): 4.07 µM
growth at 100 µM (SR [19]): -13%
growth at 1 µM (NCI-H460): 89%
growth at 0.1 µM (TK-10 [20]): 108%
growth at 0.1 µM (SK-MEL-2): 106%
growth at 1 µM (SN12C): 83%
GI50 (A549 [21]; read-out: GI50): 1.19 µM
CC50 (A549 [21]; [23]): 6.37 µM
TGI (A549 [21]; read-out: TGI): 2.76 µM
GI50 (A549 [21]; read-out: pGI50 (converted)): 1.2 µM
CC50 (A549 [21]; [24]): 6.31 µM
TGI (A549 [21]; read-out: pTGI (converted)): 2.75 µM
growth at 0.1 µM (T47D [22]): 104%

From ChEMBL document CHEMBL2413072, “Synthesis and in vitro anticancer studies of novel C-2 arylidene congeners of lantadenes” (2013)
